Measurements published in patent publication EP1010435A1, “NANOCAPSULE PREPARATIONS FOR TREATING INTRAARTICULAR DISEASES” (Maruho K.K., priority 1997, dated 1999).

Tested on: rabbit models in which adjuvant arthritis was induced with ovalbumin (FCA)
Experiment: Rabbit adjuvant arthritis model, intra-articular administration simultaneously with boosting
Format: in vivo, rabbits
Procedure: Produced were rabbit models in which adjuvant arthritis was induced with ovalbumin (FCA) according to the method of E.R.Pettipher et al. (Br.J.Exp.Path., 69, 113-122, (1988)). Three weeks after sensitization, the models were boosted again with ovalbumin at knees. Simultaneously with boosting, the sample of the present invention was administered in articular cavities.
An aqueous solution of betamethasone sodium phosphate so prepared that the amount of the medicament (BSP) was the same, 3mg, and physiological saline alone were administered in articular cavities as a control and as a blank test, respectively, simultaneously with boosting.
The outside diameter of the knees of rabbits were measured with a caliper 1 day, 3 days, 7 days, 14 days, 21 days, 28 days, 35 days and 42 days after administration. Skin temperature at the knees was measured with a contact-type surface thermometer.
The outside diameter of the knees and temperature measured with time are shown as values obtained by subtracting reference values from the measured values. The reference values are those before the boosting at the knees.
Further, blood was collected from rabbits 2 weeks, 4 weeks and 6 weeks after boosting, and the production of antibodies for ovalbumin was mesured by the ELISA method (according to the same reference by E.R.Pettipher). In addition, 6 weeks after boosting, the knee joints of rabbits are opened, and the inside of the articular cavities and surrounding tissue were morphologically observed.

## C[C@H]1C[C@H]2[C@@H]3CCC4=CC(=O)C=C[C@]4(C)[C@@]3(F)[C@@H](O)C[C@]2(C)[C@@]1(O)C(=O)COP(=O)(O)O [betamethasone sodium phosphate]
1 to 42 days after administration, 3 mg BSP intra-articular
  temperature of knees (surface skin temperature, increase): fever due to inflammation was suppressed
After day 1 up to 5 weeks and later, 3 mg BSP intra-articular
  swell of knees (outside diameter, increase over value before boosting), later course: almost the same swell as in the case of physiological saline
One day after intra-articular administration, 3 mg BSP
  swell of knees (outside diameter, increase over value before boosting): suppressed
